Measurements reported in PMC6008299, “Impact of race on dose selection of molecular-targeted agents in early-phase oncology trials” (British Journal of Cancer, 2018).
Entries after “also recorded” stand apart in the source; their conditions may differ.

Assays:
[1] = tested on: tumour [18F]-FDG uptake; assay: [18F]-FDG-PET metabolic response, US (Caucasian) patients; assay type: in vivo, human; conditions: day 4
Protocol: In both studies, the PK profile of DS-7423 was characterised during cycle 1 on days 1 and 8. For PD analysis, glucose, C-peptide, and Akt phosphorylation were measured in platelet-rich plasma collected at predose, 1, 2, 4, 6, and 24 h after dosing on days 1 and 15. Tumour assessment was performed every two cycles using Response Evaluation Criteria in Solid Tumours (RECIST) version 1.1 in both studies. 18F-Fluoro-2-deoxy-D-glucose positron emission tomography ([18F]-FDG) was performed as an exploratory endpoint at baseline and on day 4.[10]

[2] = tested on: patients with advanced, refractory solid tumours; assay: Phase I dose-escalation study U101 (US): safety, DLT, MTD; assay type: in vivo
Source text: Studies were approved by the Institutional Review Board at the participating institutions and regulatory authorities. Written informed consent in English and Japanese was obtained from all patients prior to enrollment.
Secondary and exploratory objectives were to evaluate PK, tumour response, and PD effects. Treatment-emergent adverse events (TEAE) were graded using the Common Terminology Criteria for Adverse Events version 4.0. A dose-limiting toxicity (DLT) was defined as a grade ≥3 clinically significant toxicity, with the exceptions of grade ≥4 anaemia and prolonged grade 3 neutropenia. Both studies were open-label, phase I dose-escalation studies. In Japan, the study was conducted at a single centre, while the US study was conducted at three sites. […] In the US, an accelerated titration design was used at low doses followed by a mCRM with EWOC. Briefly, the dose was escalated based on safety data in a single patient until a grade 2 or higher toxicity was observed during cycle 1 or the DLT period (days 1–28). […] Prophylactic granulocyte colony-stimulating factor and antiemetics were not permitted during cycle 1.

## CC(=O)N1CCN(c2nc3c(N4CCOCC4)nc(-c4cnc(N)nc4)nc3n2CC(F)(F)F)C[C@H]1C [DS-7423]
[1]
  Patients with partial metabolic response ([18F]-FDG-PET): 48.5%
[1]; of 33 patients
  Patients with partial metabolic response ([18F]-FDG-PET): 16
[2]; 160 mg US cohort (n = 4)
  AST increased (TEAE), n patients: 0
  Abdominal pain (TEAE), n patients: 1
  Back pain (TEAE), n patients: 0
  Blood creatinine increased (TEAE), n patients: 2
  Constipation (TEAE), n patients: 2
  Cough (TEAE), n patients: 0
  Decreased appetite (TEAE), n patients: 3
  Dehydration (TEAE), n patients: 1
  Diarrhoea (TEAE), n patients: 4
  Dry mouth (TEAE), n patients: 0
  Dysgeusia (TEAE), n patients: 1
  Dyspnea (TEAE), n patients: 0
  Edema (TEAE), n patients: 0
  Fatigue (TEAE), n patients: 4
  Hyperglycaemia (TEAE), n patients: 1
  Lung infection/ pneumonia (TEAE), n patients: 0
  Nausea (TEAE), n patients: 2
  Pyrexia (TEAE), n patients: 0
  Rash (TEAE), n patients: 0
  Stomatitis (TEAE), n patients: 1
  Vomiting (TEAE), n patients: 2
[2]; 240 mg US cohort (n = 9)
  Abdominal pain (TEAE), n patients: 4
  Back pain (TEAE), n patients: 3
  Blood creatinine increased (TEAE), n patients: 2
  Constipation (TEAE), n patients: 1
  Cough (TEAE), n patients: 0
  Decreased appetite (TEAE), n patients: 5
  Decreased appetite ≥G3, n patients: 1
  Dehydration (TEAE), n patients: 1
  Diarrhoea (TEAE), n patients: 5
  Dry mouth (TEAE), n patients: 3
  Dysgeusia (TEAE), n patients: 2
  Dyspnea (TEAE), n patients: 3
  Edema (TEAE), n patients: 1
  Fatigue (TEAE), n patients: 5
  Fatigue ≥G3, n patients: 1
  Hyperglycaemia (TEAE), n patients: 2
  Lung infection/ pneumonia (TEAE), n patients: 1
  Nausea (TEAE), n patients: 4
  Pyrexia (TEAE), n patients: 2
  Rash (TEAE), n patients: 0
  Stomatitis (TEAE), n patients: 5
  Stomatitis G3, n patients: 1
  Vomiting (TEAE), n patients: 3
[2]; 240 mg US cohort (n = 9), cell marks ≥G3
  AST increased (TEAE), n patients: 2, ≥G3
[2]; 320 mg US cohort (n = 8)
  AST increased (TEAE), n patients: 0
  Abdominal pain (TEAE), n patients: 0
  Back pain (TEAE), n patients: 0
  Blood creatinine increased (TEAE), n patients: 2
  Constipation (TEAE), n patients: 1
  Cough (TEAE), n patients: 1
  Decreased appetite (TEAE), n patients: 5
  Dehydration (TEAE), n patients: 3
  Dehydration G3, n patients: 1
  Diarrhoea (TEAE), n patients: 4
  Dry mouth (TEAE), n patients: 2
  Dysgeusia (TEAE), n patients: 5
  Dyspnea (TEAE), n patients: 2
  Edema (TEAE), n patients: 1
  Fatigue (TEAE), n patients: 6
  Fatigue G3, n patients: 1
  Hyperglycaemia (TEAE), n patients: 3
  Nausea (TEAE), n patients: 5
  Pyrexia (TEAE), n patients: 2
  Rash (TEAE), n patients: 3
  Stomatitis (TEAE), n patients: 1
  Vomiting (TEAE), n patients: 4
[2]; 320 mg US cohort (n = 8), cell marks G3
  Lung infection/ pneumonia (TEAE), n patients: 1, G3
[2]; 2–28 mg US cohort (n = 10)
  AST increased (TEAE), n patients: 3
  AST increased ≥G3, n patients: 1
  Abdominal pain (TEAE), n patients: 0
  Back pain (TEAE), n patients: 5
  Blood creatinine increased (TEAE), n patients: 0
  Constipation (TEAE), n patients: 3
  Cough (TEAE), n patients: 2
  Decreased appetite (TEAE), n patients: 3
  Dehydration (TEAE), n patients: 0
  Diarrhoea (TEAE), n patients: 5
  Dry mouth (TEAE), n patients: 3
  Dysgeusia (TEAE), n patients: 0
  Dyspnea (TEAE), n patients: 2
  Edema (TEAE), n patients: 2
  Fatigue (TEAE), n patients: 7
  Fatigue ≥G3, n patients: 2
  Hyperglycaemia (TEAE), n patients: 0
  Nausea (TEAE), n patients: 6
  Pyrexia (TEAE), n patients: 1
  Rash (TEAE), n patients: 2
  Stomatitis (TEAE), n patients: 1
  Vomiting (TEAE), n patients: 4
[2]; 2–28 mg US cohort (n = 10), cell marks G3
  Lung infection/ pneumonia (TEAE), n patients: 1, G3
[2]; 48–80 mg US cohort (n = 11)
  AST increased (TEAE), n patients: 1
  Abdominal pain (TEAE), n patients: 1
  Back pain (TEAE), n patients: 1
  Blood creatinine increased (TEAE), n patients: 0
  Constipation (TEAE), n patients: 0
  Cough (TEAE), n patients: 3
  Decreased appetite (TEAE), n patients: 2
  Diarrhoea (TEAE), n patients: 4
  Dry mouth (TEAE), n patients: 3
  Dysgeusia (TEAE), n patients: 2
  Dyspnea (TEAE), n patients: 1
  Edema (TEAE), n patients: 1
  Fatigue (TEAE), n patients: 5
  Fatigue ≥G3, n patients: 1
  Hyperglycaemia (TEAE), n patients: 2
  Lung infection/ pneumonia (TEAE), n patients: 0
  Nausea (TEAE), n patients: 6
  Pyrexia (TEAE), n patients: 2
  Rash (TEAE), n patients: 4
  Rash G3, n patients: 1
  Stomatitis (TEAE), n patients: 3
  Vomiting (TEAE), n patients: 3
[2]; 48–80 mg US cohort (n = 11), cell marks G3
  Dehydration (TEAE), n patients: 1, G3
[2]; US study
  MTD: 240 mg
[2]; US study, 48 mg
  Grade 3 DLT: rash
[2]; US study, 240 mg
  Grade 3 DLT: stomatitis; also recorded: fatigue and dehydration
[2]; US study, of 34 DLT-evaluable patients
  Patients with DLT: 4
